These results are taken from patent publication US9878006B2, “Treatment of obesity and obesity related disorders by pharmalogical targeting of Kv1.3 potassium channels” (The Regents of the University of California, priority 2011, dated 2018).

Read-outs that look alike come from different tables or passages of the source.

Assay [1] has as its system brown adipose tissue cells. To be noted: potassium channel blockade; cited from earlier work.
Assay [2] can be described thus: CLAMS metabolic cages: feeding, drinking, RER, energy expenditure. Type of assay: in vivo, mice. An excerpt: FIGS. 4A through 4D show feeding and drinking patterns of mice analyzed in negative-flow CLAMS (Comprehensive Lab Animal Monitoring system) metabolic cages. All the animals were habituated with the high fat/high fructose diet for at least 7 days prior to the metabolic cage studies. All animals were placed individually in each metabolic cage and habituated for two days under normal 12 hr. light-dark cycle.
Mice were acclimated for 2 days in the metabolic cages before the measurements were made.
FIGS. 5A through 5D show Respiratory Exchange Ratio (RER) and energy expenditure in vehicle controls (n-2) and ShK-186-treated mice (n=2). RER of 0.70 is when a subject is metabolizing pure fat, whereas RER of 1.0 is when a subject is metabolizing pure carbohydrate.

The next assay has as its system skeletal muscle. Description: PET imaging, 18FDG uptake by skeletal muscle. Particulars: FIG. 7. The assay is classed as in vivo, mice. As for the experimental part:
(§1) ^18F-FDG was purchased from PETNET. Mice were fasted overnight before CT or PET scan. For PET scan animals were injected with 0.1-0.2 mCi of ^18F-FDG in sterile saline. Approximately, 0.02 to 0.05 ml was administered intravenously (tail vein) under 2% Isoflurane and animal was allowed to remain awake for 60 mins in their cages to allow distribution and uptake of ^18F-FDG. During the scan 2% isoflurane was used and the mouse was laid in the supine position on the scanner. All PET acquisitions were performed with an Inveon (Siemens Medical Solutions) preclinical PET scanner. PET data was acquired for 30 min. When used with PET scanner CT data was obtained immediately after PET imaging without changing the position of the animal. PET images were corrected for attenuation, scatter, randoms, and dead time. Images were reconstructed as 128×128 matrices using a fast MAP algorithm with a smoothing factor of 0.1. CT HU of BAT and WAT was obtained by calibrating the CT data using linear interpolation of water CT Density (CT HU=0) and air CT density (CT HU=−1000). After the scan procedure, animals were allowed to recover from anesthesia, placed in their cages and monitored for normal recovery.
(§2) All scanning data was acquired in full list mode and sorted into a single frame, 3 dimensional sinogram, which was rebinned using a Fourier rebinning algorithm. […]

Another assay relates to brown adipose tissue. The assay can be described thus: PET scan, 18FDG uptake by brown adipose tissue. Type of assay: in vivo, mice. As for the experimental part:
as §1, §2

Another assay deals with white adipose tissue. The assay can be described thus: CT scan of white adipose tissue in the diet-induced obesity model. Type of assay: in vivo, C57BL/6 mice. To be noted: 500 μg/kg; after 45 days on high fat/high fructose diet; vs vehicle; p=0.000708; FIG. 3A/3B. As for the experimental part:
Mice were fasted overnight before CT scans. All CT acquisitions were performed with an Inveon (Siemens Medical Solutions) preclinical CT scanner. During the scan 2% isoflurane was used and the mouse was laid in the supine position on the scanner. Images were reconstructed as 128×128 matrices using a fast MAP algorithm with a smoothing factor of 0.1. CT HU of WAT was obtained by calibrating the CT data using linear interpolation of water CT Density (CT HU=0) and air CT density (CT HU=−1000). After the scan procedure, animals were allowed to recover from anesthesia, placed in their cages and monitored for normal recovery. All scanning data was acquired in full list mode and sorted into a single frame, 3 dimensional sinogram, which was rebinned using a Fourier rebinning algorithm. The images were reconstructed using 2 dimensional filter back projection using a Hanning Filter with a Nyquist cut off at 0.5, and corrected for attenuation using the Co-57 attenuation scan data. All CT Data analysis was done using PMOD 3.0 software.

The nature of assay [3]: diet-induced obesity model in mice (high fat/high fructose diet): weight gain and blood glucose. Type of assay: in vivo, C57BL/6 mice. Particulars: 20, 100 or 500 μg/kg s.c. on alternate days. As for the experimental part: The accompanying figures show the obesity-deterring efficacy of ShK-186 in the diet-induced obesity model in C57BL/J mice (diet composed of 21% fat+60% fructose-water). 8 week old C57BL/6 mice were purchased from Harlan Co. (Indianapolis, Ind.). They were fed a specialized high fat diet (#TD88137; 21% fat) purchased from Harlan Co. (Indianapolis, Ind.), and they received a 60% fructose solution to drink. The mice were administered vehicle (P6N) or ShK-186 (20, 100 or 500 μg/kg) by subcutaneous injections on alternate days. Animals were weighed on alternate days. Blood glucose levels were monitored every 6 days by tail-vein sampling using an Accu-Chek compact glucometer from Roche. The animal experimental protocol was approved by the Institutional Animal Care and Use Committee at University of California, Irvine.
All mice received the high fat/high fructose diet throughout the trial. They received vehicle (P6N) or ShK-186 (20, 100 or 500 μg/kg) on alternate days by subcutaneous injection. The weight is normalized to the average weight at the start of the study. All the mice in this study were males. Using repeated measures ANOVA, the p value <0.0001 for all the ShK-186 doses.

Assay [4] has as its system brown fat. To be noted: rats; 5 mg/kg body wt; cited from earlier work.
The test system of assay [5] is brown fat. To be noted: man; 1 mg/kg; cited from earlier work.
[6] abbreviates: n=2, vs vehicle controls, FIG. 5A-5D.

In the case of `CC[N+](CC)(CC)CC` [tetraethylammonium], the “metabolic response of brown adipose tissue cells to adrenergic stimulation” value in assay [1] was “does not alter the metabolic response of brown adipose tissue cells to adrenergic stimulation”.

Take “p-phospho-Tyr-AEEAc-Arg-Ser-Cys-Ile-Asp-Thr-Ile-Pro-Lys-Ser-Arg-Cys-Thr-Ala-Phe-Gln-Cys-Lys-His-Ser-Met-Lys-Tyr-Arg-Leu-Ser-Phe-Cys-Arg-Lys-Thr-Cys-Gly-Thr-Cys [ShK-186]”: in assay [2] (given at onset of the measuring phase, controls feed and drink in dark cycle only, p<0.05 after first 24 hrs, FIG. 4A-4D), the “feeding and drinking pattern” value is “feed and drink during both dark and light cycles”. The “Respiratory Exchange Ratio (RER), substrate metabolized” value in assay [2] (n=2, especially during the light cycle, FIG. 5A-5D) is listed as “metabolize more carbohydrate than fat”. In addition, in assay [2] (setting [6]), the “energy expenditure during the day” value is recorded as “greater energy expenditure during the day” and the “energy expenditure during the night” value was “roughly equivalent energy expenditure during the night”. The “18FDG uptake by skeletal muscle” value in the assay on skeletal muscle (ShK-186 at 20, 100 and 500 μg/kg) is listed as “increased ^18FDG uptake by skeletal muscle”. Also, in the assay on brown adipose tissue (ShK-186 at 100 and 500 μg/kg, FIG. 6A), the “18FDG uptake by brown adipose tissue” value was “induces ^18FDG-uptake by brown adipose tissue”. In the assay with white adipose tissue, the “volume of white adipose tissue” value is “significantly reduced the volume of white adipose tissue”. The blood glucose levels result in assay [3] (measured every 6 days, FIG. 1B) is on record as “without changing blood glucose levels”. Further, the weight gain result in assay [3] (vs vehicle, dose-dependent, p<0.0001 for all doses, FIG. 1A) is “significantly reduced weight gain”.

Turning to `CC(C)NCC(O)COc1cccc2ccccc12` (centres unmarked) [propranolol, reference compound], the “18-fluoro-deoxyglucose uptake into brown fat” value with brown fat [4] is “eliminates ^18-fluoro-deoxyglucose uptake into brown fat”; with brown fat [5], “has the same effect”. The “inhibition of ShK-186-increased 18FDG uptake by skeletal muscle” value with skeletal muscle (propranolol 5 mg/kg) is reported as “did not inhibit this uptake”. In addition, in the assay with brown adipose tissue (propranolol 5 m/kg, FIG. 6B), the “inhibition of 18FDG uptake by brown adipose tissue” value is listed as “inhibited”.
